For 4 compounds, IC50 and melting point results are on record in US6472389B1, “Pyrrolo[1,2-b] pyridazine derivatives having sPLA2 inhibitory effect” (Shionogi & Co., Ltd., priority 1998, dated 2002).

A word on the IC50: it is the concentration at which inhibition is half-maximal. By melting point is commonly meant the temperature of the solid-liquid transition.

The target in data set [1] is T1, recombinant human secretory phospholipase A2 (Homo sapiens, UniProt P14555).
T1 sequence (P14555 21-144): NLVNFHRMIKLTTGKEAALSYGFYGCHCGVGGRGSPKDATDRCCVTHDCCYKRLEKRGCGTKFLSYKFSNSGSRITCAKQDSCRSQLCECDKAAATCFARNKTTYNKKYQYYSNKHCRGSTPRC
As to the kind of experiment: Inhibition test of human secretory phospholipase A2 (chromogenic assay, 96 well microtiterplate). The format is biochemical. The settings on record: sPLA2 50 ng/well, 40° C., 30 minutes, OD 405 nm, substrate 1,2-bis(heptanoylthio)-1,2-dideoxy-sn-glycero-3-phospholylcholine. The text has this:
Inhibition Test of Human Secretory Phospholipase A2
In order to identify and evaluate an inhibitor of recombinant human secretory phospholipase A2, the following chromogenic assay is utilized. The assay herein has been applied for high volume screening wherein 96 well microtiterplate is used. A general explanation for such assay is described in “Analysis of Human Synovial Fluid Phospholipase A2 on Short Chain Phosphatidylcholine-Mixed Micelles: Development of a Spectrophotometric Assay Suitable for a Micortiterplate Reader” (Analytical Biochemistry, 204, pp 190-197, 1992 by Laure. J. Reynolds. Lori L. Hughes and Edward A. Dennis: the disclosure of which is incorporated herein for reference.
Bovine Serum Albumin (fatty acid free) (1 g/L) (Sigma A-7030)
pH 7.5 (adjusted with NaOH)
pH 4.5 (adjusted with acetic acid)
1 mg of sPLA2 is dissolved in 1 ml of an enzyme buffer. Thereafter, the solution is maintained at 4° C.
In the assay, 5 μl of the solution is diluted with 1995 μl of the reaction buffer to be used.
198 mg of 5,5′-dithiobis-2-[…] (manufactured by Wako Pure Chemicals) is dissolved in 100 ml of H2O
100 mg of racemic 1,2-bis(heptanoylthio)-1,2-dideoxy-sn-glycero-3-phospholylcholine is dissolved in 1 ml of chloroform.
624.9 mg of Triton-X 100 is dissolved in the reaction buffer.
Enzyme Reaction: for 1 plate of Microtiterplate
1) 0.106 ml of the substrate solution is put in a centrifugal tube, and nitrogen gas is jetted to remove the solvent. 0.54 ml of Triton-X 100 is added thereto, the mixture is stirred, thereafter it is sonified in a bath type sonification to dissolve. To the resulting product are added 17.8 m1l of the reaction buffer and 0.46 ml of DTNB, and 0.18 ml each of the admixture is poured to wells of the 96 well microtiterplate.
2) 10 μl of a test compound (or solvent blank) are added in accordance with alignment of plates which has been previously set.
3) Incubation is effected at 40° C. for 15 minutes.
4) 20 μl of an enzyme solution (sPLA2) which has been previously diluted (50 ng/well) are added to start reaction (40° C., 30 minutes).
5) Changes in absorbancy for 30 minutes are measured by a plate reader, and inhibition activity was calculated (OD: 405 nm).
6) IC50 was determined by plotting log concentration with respect to inhibition values within 10% to 90% inhibiting range.

On to `CCc1c(C(=O)C(N)=O)c2c(OCC(=O)OC)cc(-c3ccc(F)cc3)nn2c1Cc1ccc(F)cc1` [Compound I-32], for which the melting point is 274 to 276 °C (dec.). Moreover, the IC50 in data set [1] was 239 nM.

The compound `CCc1c(C(=O)C(N)=O)c2c(OCC(=O)OCc3ccccc3)cc(CN3CCOCC3)nn2c1Cc1ccccc1` [Compound I-30] returned a melting point of 183 to 184 °C. Moreover, the IC50 in data set [1] is 4520 nM.

Take `CCc1c(C(=O)C(N)=O)c2c(OCC(=O)OC)cc(C(F)(F)F)nn2c1Cc1ccc(F)cc1` [Compound I-14]: the melting point is 200 to 202 °C. In addition, the IC50 in data set [1] was 883 nM.

`CSCc1cc(OCC(=O)O)c2c(C(=O)C(N)=O)c(C)c(Cc3ccccc3)n2n1` [Compound I-73]: the melting point is 228 to 229 °C (dec.). The IC50 in data set [1] worked out at 19 nM.
